Patent US12629355B2, “Drug inhibitor against migration and invasion of cancer cells and methods of treating against metastasis of cancer cells” (HOWARD UNIVERSITY, priority 2019, dated 2026)

Molecular target: T1, RACK1A Y248 phosphorylation (Arabidopsis thaliana, UniProt O24456)
T1 construct: from tissue; host or cells: one-week old Arabidopsis seedlings (whole-seedling lysate)
Assay: Stress hormone (ABA) induced RACK1A Y248 phosphorylation in Arabidopsis seedlings, western blot (FIG. 1)
Format: cell-based
Conditions: 10 uM ABA, 12 hours
From the text: The results of lab experiment establish the compounds identified by in silico screen to prevent RACK1 Y248 phosphorylation can inhibit RACK1 Y248 phosphorylation and confirm their utility in their application in RACK1 mediated cellular pathways. Y248 phosphorylation has previously been identified as a key event needed for RACK1 mediated scaffolding activities by regulating protein-protein interactions in plants. The corresponding residue in human RAKI is also a key requirement for scaffolding activities needed at the receptor level during the invasion and migration of cancer cells. […] The knock-out plant did maintain both the RACK1B protein and the RACK1C protein, but the antibody was raised to detect the RACK1A Y248 phosphorylation only.
As to FIG. 1, since RACK1 is a regulator of plant stress hormone Abscisic acid (ABA) (Guo et al., 2009), one-week old Arabidopsis seedlings were treated with 10 uM of ABA in the presence/absence of the inhibitor compounds for 12 hours in a growth chamber (overnight) at 22 C mostly in the night dark. Lysates isolated in buffer (Cell Signaling, MA) supplemented with plant protease inhibitor (Sigma-Aldrich), Protein Tyrosine phosphatase inhibitors (Santa Cruz Biotechnology, TX), and N-Ethylamaleimide (Sigma-Aldrich) at 25 mM to inhibit de-sumoylation. […]

T1 sequence (O24456 whole entry): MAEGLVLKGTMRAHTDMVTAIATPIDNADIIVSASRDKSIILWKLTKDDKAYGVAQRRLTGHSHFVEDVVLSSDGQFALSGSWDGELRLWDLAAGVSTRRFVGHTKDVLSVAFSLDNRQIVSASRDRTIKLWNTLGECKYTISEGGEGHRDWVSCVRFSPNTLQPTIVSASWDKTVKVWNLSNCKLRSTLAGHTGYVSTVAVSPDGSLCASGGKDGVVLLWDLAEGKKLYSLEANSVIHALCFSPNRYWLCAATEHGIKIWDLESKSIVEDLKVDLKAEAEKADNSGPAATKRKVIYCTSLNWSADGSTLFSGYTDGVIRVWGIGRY

RACK1A Y248 phosphorylation with stress hormone present: prevents Y248 phosphorylation
SMILES: Nn1c(S)nnc1-c1ccc(F)cc1 [SD 29, reference compound]
